Assay results: patent US20140170236A1, “USE OF PHOSPHORIC ACID” (priority 2010, published 2014)
Where two headings read alike, the source gives them in different places.

Experiments:
coronary condition = details: Example 1 subject; after twelve months of 2.5 mL daily (183 mg phosphorus); baseline stress test positive
Description: (§1) The cardiac interventionist prescribed the same kind of drug therapy as above. A stress test was conducted at this time to provide a baseline for comparing with possible future stress tests.
(§2) The subject then took a 2.5 mL daily dose of a 23.8% (mg/L) solution of phosphoric acid composition comprising 183 mg of phosphorus for a period of twelve months. This represented 26% of the RDA of phosphorous (700 mg) for an adult.

calcified plaque = details: Example 1 subject; two years after angiogram that showed extensive calcified plaque
Description: as §1, §2

[1] = tested on: soft plaque in the arteries; details: Example 2 subject; at the time of the third CT calcium scan; no CTA scan before treatment
Excerpt: At the same time the most recent CT calcium scan was done, a Computed Tomography Angiography (CTA) scan was also done with contrast dye to determine the amount of soft plaque in the arteries.

[2] = Description: (§3) The risk assessment assumed that the calcified plaque would increase at the usual anticipated rate of approximately 15% to 30% a year. They took a daily dose of 2.5 ml of a 23.8% (mg/L) phosphoric acid in water, (183 mg of phosphorus) for a period of six months. […] A third CT calcium scan was performed approximately three months after increasing the dose. This was eight months and twenty days after the initial dosing with phosphoric acid.
[3] = tested on: calcified plaque in the coronary arteries
Excerpt: A coronary computed tomography (CT) calcium scan is a test to assess the build up of plaque (calcification) in the coronary arteries. Because calcium is a component of hard plaque and is a marker of coronary artery disease (CAD) such a scan can be used as a diagnostic tool for CAD. The amount of calcium detected on a CT scan, expressed as a calcium score, reflects the degree and extent of calcium deposits on the walls of coronary arteries. Once calcified plaque begins to accumulate on arterial walls the amount deposited increases logarithmically at a rate of 15% to 30% a year.
The calcium score is an indicator of potential heart risk. […] A higher score is indicative of an increased risk and cardiologists express concern of the possibility of a heart incident at various levels but especially at 400 or above. Some treatments such as the product Crestor®, claim to slow the rate of deposition of plaque.
as §2, §3
The subject takes Famotadine for acid reflux and continues to smoke “one or two cigars a week.” The subject began taking a daily dose of 3.75 ml of a 23.8% (mg/L) phosphoric acid solution.
They currently take lipid lowering medication. They began taking 3.75 ml of a 23.8% (mg/L) phosphoric acid solution shortly after […] CT Calcium Scan.
Their medications includes: Benicar®, Crestor®, Niaspan®, and Lovaza®. Two and a half months after having the first Calcium Score assessment they began taking a daily dose of 3.75 ml of a 23.8% (mg/L) phosphoric acid solution. […] Note, cadaver studies consistently indicate that smokers are more prone to advanced artery disease.

[4] = Example 1 subject; 2.5 mL daily (183 mg phosphorus)

SMILES: O=P(O)(O)O [phosphoric acid]
- second stress echo test result (coronary condition): negative
- calcified plaque on CT Angiogram (calcified plaque): no calcified plaque except in the area of the stent
- soft plaque score [1]: 0
- side-effects related to the phosphoric acid composition ([2]; Example 1 subject, 2.5 mL daily (183 mg phosphorus)): no side-effects
- side effects at the higher dose level ([2]; Example 2 subject, daily dose 3.75 ml (274 mg phosphorus)): no side effects
- % Whose Ca Score Increased ([3]; All, sample size 5): 20%
- calcium score ([3]; Example 1 subject (man, stent), 2.5 mL daily of 23.8% (mg/L) solution, 183 mg phosphorus, after one year, no base score): 29
- probability of a heart attack in the next 10 years ([3]; Example 1 subject, after one year of 2.5 mL daily (183 mg phosphorus)): 10%
- calcium score ([3]; Example 2 subject, initial score 181, 2.5 ml daily (183 mg phosphorus), second CT scan at six months): 181
- calcium score ([3]; Example 2 subject, initial score 181, third scan eight months and twenty days after initial dosing, about three months after increase to 3.75 ml (274 mg phosphorus)): 179
- calcium score ([3]; Example 3 subject, initial score 193, 3.75 ml daily of 23.8% (mg/L) solution, approximately six months): 122
- reduction of calcium score ([3]; Example 3 subject, 193 to 122, approximately six months of 3.75 ml daily): 37%
- calcium score ([3]; Example 4 subject, initial score 85, 3.75 ml of 23.8% (mg/L) solution, eight months): 83
- calcium score lower than the initial score ([3]; Example 4 subject, 85 to 83, eight months): 2 points
- annual rate of increase of calcium score ([3]; Example 5 subject): 13.4%
- calcium score ([3]; Example 5 subject (heavy smoker), initial score 117, 3.75 ml daily of 23.8% (mg/L) solution, eight months after start): 130
- increase of calcium score ([3]; Example 5 subject, 117 to 130): 11%
- % Whose Ca Score Increased ([3]; Non-Smokers, sample size 4): 0%
- % Whose Ca Score Increased ([3]; Smokers, sample size 1): 100%
- bone density on bone scan [4]: normal bone density
